In article PMC4490744, “Protective effect of a Protein Epitope Mimetic CCR10 antagonist, POL7085, in a model of allergic eosinophilic airway inflammation” (Respiratory Research, 2015):

Experiments:
[1] = test system: OVA-sensitized and challenged Balb/c mice; experiment: BAL total and differential cell counts, OVA model; format: in vivo, mouse; settings: 24 h after last challenge, POL7085 15 mg/kg or DEX 1 mg/kg i.n. once daily 1 h before challenge, p < 0.001
Description: (§1) Bronchoalveolar lavage (BAL) was performed 24 h after the last OVA challenge as previously described. Mice were anaesthetized i.p. (ketamine 150 mg/kg, xylazine 10 mg/kg). A plastic cannula was inserted in the exposed trachea, and airways were washed with 0.5 mL of 0.9 % NaCl (saline) injected with a 1 mL syringe. This procedure was performed ten times. The initial concentrated supernatant of the two first lavages (2 × 0.5 mL administered, approx. 0.5 mL recovered) was collected for cytokine measurements. The remainder of the BALF was centrifuged (600 g for 5 min, 4 °C), and cell pellets pooled. After lysis of erythrocytes with distilled water followed by osmotic re-equilibration and centrifugation, the cell pellet was suspended in 500 μL of saline and total cell counted on a haemocytometer chamber (Neubauer, PRECISS®). Cells were cytocentrifuged at 700 rpm for 10 min (Cytospin 4, Thermo Fischer Scientific), and stained with Diff-Quick® (Merck) for differential cell counts performed on at least 400 cells.

[2] = test system: OVA-sensitized and challenged Balb/c mice; experiment: BAL cytokines by ELISA, OVA model; format: in vivo, mouse; settings: 24 h after last challenge
Description: as §1, with “Cells were cytocentrifuged at 700 rpm for 10 min (Cytospin 4, Thermo Fischer Scientific), and stained with Diff-Quick® (Merck) for differential cell counts performed on at least 400 cells.” left out
(§2) IL-5, IFN-γ (BD Pharmingen), CCL28 (R&D system) ELISA kits and Th17 Milliplex® (Millipore) were used according to the manufacturer’s instructions. For BALF recovered 24 h after the last OVA challenge, IL-5 and IFN-γ were quantified by ELISA. For lung homogenate, concentrations of IL-4, IL-5, IL-13, IL-17a and IL-17f were quantified by Milliplex® in the supernatants obtained after lung tissue was homogenised with an UltraTurax® and centrifuged at 10,000 g for 10 min at 4 °C.

[3] = test system: OVA-sensitized and challenged Balb/c mice; experiment: Lung homogenate cytokines by Milliplex, OVA model; format: in vivo, mouse; settings: POL7085 7.5 and 15 mg/kg or DEX 1 mg/kg i.n.
Description: as §2

[4] = test system: OVA-sensitized and challenged Balb/c mice; experiment: Plasma OVA-specific IgE by ELISA, OVA model; format: in vivo, mouse; settings: D22, ELISA
Description: Plasma IgE levels were determined by ELISA. Microtiter plates were coated overnight at 4 °C with the capture antibody, anti-mouse IgE at 2 μg/well in carbonate buffer, pH 9.5 (BD Pharmingen, clone R35-118).

[5] = test system: OVA-sensitized and challenged Balb/c mice; experiment: Lung tissue CCL28 by ELISA, OVA model; format: in vivo, mouse; settings: POL7085 p < 0.05
Description: as §2

[6] = test system: OVA-sensitized and challenged Balb/c mice; experiment: Lung CCR3 mRNA by RT-qPCR, OVA model; format: in vivo, mouse; settings: 2^ΔΔCt, not significant
Description: All procedures were performed according to the manufacturer’s instructions. Lung tissue was homogenised in a Fastprep®, and total RNA extracted with Tri-Reagent® (1 mL/left lung; Euromedex) and purified with mini RNeasy® Kit (Qiagen). RNA pellets were suspended in nuclease-free water (DEPC). RNA concentration and quality were determined in each preparation with a Nanodrop® spectrophotometer.
Reverse transcription was performed on 10 μg/mL of total RNA by the High Capacity cDNA Archive kit® (Life Technologies™) for 10 min at 25 °C and 2 h at 37 °C, and cDNAs were stored at −80 °C until use. Quantitative PCR was performed by real-time fluorescent PCR with TaqMan® Gene Expression Assay in 96 well plate format (Life Technologies™, ABI7000) using TaqMan® Gene Expression Assay primers (Life Technologies™ for HPRT1 (Mm01545399_m1), CCR10 (Mm01292449_m1), CCL28 (Mm00445039_m1) and CCR3 (Mm00515543_s1). To analyse the low expression of CCR10, CCL28 and CCR3, a preamplification was performed with TaqMan® PreAmp Master Mix (Life Technologies™) and TaqMan® Gene Expression Assay (10 min at 95 °C followed by 14 cycles: 15 s at 95 °C and 4 min at 60 °C). Preamplified cDNAs were stored at −80 °C until use and diluted 1/20 with 1X TE buffer for use. […]

[7] = test system: OVA-sensitized and challenged Balb/c mice; experiment: Colorimetric assay of lung mucus, OVA model; format: in vivo, mouse
Description: Mucus was measured in lung homogenate by a mucus colorimetric assay: 100 μL samples were mixed with 20 μL acid mucus reagent (0.2 % periodic acid) incubated for 1 h at 37 °C, then 20 μL mucus dye reagent (pararosaniline 1 %, 10 N hydrochloric acid 1 %) was added and samples were incubated for a further 30 min at 37 °C, before optical density measurement at 555 nm.

[8] = test system: OVA-sensitized and challenged Balb/c mice; experiment: Airway responsiveness to methacholine, whole body barometric plethysmography; format: in vivo, mouse; settings: DEX 1 mg/kg i.n., p < 0.001
Description: Airway responsiveness to aerosolized methacholine (MCh; Sigma-Aldrich, A2251) was measured in conscious mice on day 22 (24 h after the last OVA challenge) by whole body barometric plethysmography (Emka Technologies). Mice were acclimatized in the plethysmograph chamber for 30 min until a stable baseline was obtained, and then exposed to aerosolized saline for 30 s as a control. Mice were then challenged every 20 min with aerosolized MCh at increasing concentrations (0.05, 0.1, 0.2 and 0.3 M) for 30 s, and the enhanced pause (PenH) was recorded for 5 min and used as an index of airway obstruction.

[9] = test system: OVA-sensitized and challenged Balb/c mice; experiment: Lung histology (haematoxylin-eosin), OVA model; format: in vivo, mouse; settings: POL7085 15 mg/kg or DEX 1 mg/kg i.n.
Description: Lung tissues were fixed in 4 % paraformaldehyde and paraffin-embedded. 6 μm sections were cut, mounted on Superfrost glass slides (Fischer Scientific) and stained with haematoxylin-eosin for light microscopy morphological analysis or periodic acid-Schiff (PAS) staining to determine the extent of mucus production. The area of epithelial cells containing the mucus were measured and expressed relative to the total bronchus perimeter.

[10] = test system: OVA-sensitized and challenged Balb/c mice; experiment: Immunohistochemistry of CCR10 in the lung, OVA model; format: in vivo, mouse; settings: CCR10 immunolabelling
Description: Sections (3 μm) of lung tissue were cut, mounted, placed in Sequenza® immunostaining with Coverplate™ (Thermo Scientific Shandon), and antigen retrieval was performed with proteinase K in Tris-EDTA buffer (pH 8; Fluka) for 35 min at 37 °C. The endogenous enzyme was blocked with Dual Endogenous Enzyme Block (Dako Cytomation) and slides were incubated overnight at 4 °C with the primary antibody 1/1000 (goat anti-mouse CCR10 antibody; Capralogics), followed by 30 min at RT with the secondary rabbit anti-goat antibody (Vector) and 30 min at RT with extravidin peroxidase (Sigma-Aldrich).

[11] = test system: OVA-sensitized and challenged Balb/c mice; experiment: Colorimetric assay of lung collagen, OVA model; settings: lung homogenate, POL7085 p < 0.05, DEX 1 mg/kg p < 0.001

## C[C@@H]1C[C@H]2[C@@H]3CCC4=CC(=O)C=C[C@]4(C)[C@@]3(F)[C@@H](O)C[C@]2(C)[C@@]1(O)C(=O)CO [DEX, dexamethasone]
[1]
  inhibition of BAL eosinophil recruitment: 87%
  inhibition of BAL lymphocyte recruitment: 86%
  inhibition of BAL neutrophil recruitment: 90%
[2]
  effect on IL-5 level in BAL: significantly decreased
[3]
  effect on levels of IL-4, IL-5 and IL-13 in lung homogenate: significantly decreased
[4]
  effect on plasma OVA-specific IgE levels: a slight decrease, although non significant
[5]
  effect on lung CCL28 concentration: had no effect on CCL28 levels
[6]
  reduction of OVA-induced lung CCR3 mRNA expression: 45%
[7]
  effect on lung mucus (colorimetric assay, lung homogenate): trend towards reduction of mucus levels (ns)
[8]
  effect on airway responses to MCh: significantly decreased airway responses to MCh
[9]
  effect on peribronchial and perivascular inflammatory cell infiltrates in lung: substantial reduction of these cellular infiltrates
[10]
  infiltrating inflammatory cells expressing CCR10: clearly reduced
[11]
  reduction of lung collagen levels: 64%
